Source: patent US7799821B2, “Therapeutic compounds” (Allergan, Inc., priority 2004, dated 2010)
pEC50, pKi: −log10 of the molar value.

These compounds were tested against T1, human EP2 receptors (Homo sapiens, UniProt P43116) (assay: Competition radioligand binding ([3H]PGE2), EP2). Settings: unit inferred; read-out: EP2 data Ki.
T1 construct: expressed in transfected cells; host or cells: HEK 293
Description: Competition binding experiments were performed in a medium containing Hank's balanced salt solution, […], membranes (˜60 μg protein) or 2×10^5 cells from HEK 293 cells stably expressing human EP2 receptors, [^3H]PGE2 (10 nM) and various concentrations of test compounds in a total volume of 300 μl. Reaction mixtures were incubated at 23° C. for 60 min, and were filtered over Whatman GF/B filters under vacuum. Filters were washed three times with 5 ml ice-cold buffer containing 50 mM Tris/HCl (pH 7.3). Non-specific binding was estimated in the presence of excess unlabeled PGE2 (10 μM). Binding data fitted to the binding model for a single class of binding sites, using nonlinear regression analysis. IC50 values thus obtained were converted to Ki using the equation of Ki=(IC50/(1+[L]/KD) where [L] represents PGE2 concentration (10 nM) and KD the dissociation constant for [^3H]PGE2 at human EP2 receptors (40 nM).
(§1) HEK-293 cells stably expressing the human or feline FP receptor, or EP1, EP2, or EP4 receptors were washed with TME buffer, scraped from the bottom of the flasks, and homogenized for 30 sec using a Brinkman PT 10/35 polytron. TME buffer was added to achieve a final 40 ml volume in the centrifuge tubes (the composition of TME is 100 mM TRIS base, 20 mM MgCl2, […]; 10N HCl is added to achieve a pH of 7.4).
(§2) The cell homogenate was centrifuged at 19000 r.p.m. for 20 min at 4° C. using a Beckman Ti-60 rotor. The resultant pellet was resuspended in TME buffer to give a final 1 mg/ml protein concentration, as determined by Biorad assay. Radioligand binding competition assays vs. [^3H-]17 —phenyl PGF2α (5 nM) were performed in a 100 μl volume for 60 min. Binding reactions were started by adding plasma membrane fraction. The reaction was terminated by the addition of 4 ml ice-cold TRIS-HCl buffer and rapid filtration through glass fiber GF/B filters using a Brandel cell harvester. The filters were washed 3 times with ice-cold buffer and oven dried for one hour.
(§3) [^3H-] PGE2 (specific activity 180 Ci mmol) was used as the radioligand for EP receptors. [^3H] 17-phenyl PGF2α was employed for FP receptor binding studies. Binding studies employing EP1, EP2, EP4 and FP receptors were performed in duplicate in at least three separate experiments. A 200 μl assay volume was used. Incubations were for 60 min at 25° C. and were terminated by the addition of 4 ml of ice-cold 50 mM TRIS-HCl, followed by rapid filtration through Whatman GF/B filters and three additional 4 ml washes in a cell harvester (Brandel). Competition studies were performed using a final concentration of 5 nM [^3H]—PGE2, or 5 nM [^3H] 17-phenyl PGF2α and non-specific binding determined with 10^−5M of unlabeled PGE2, or 17-phenyl PGF2α, according to receptor subtype studied.

T1 sequence (P43116 whole entry): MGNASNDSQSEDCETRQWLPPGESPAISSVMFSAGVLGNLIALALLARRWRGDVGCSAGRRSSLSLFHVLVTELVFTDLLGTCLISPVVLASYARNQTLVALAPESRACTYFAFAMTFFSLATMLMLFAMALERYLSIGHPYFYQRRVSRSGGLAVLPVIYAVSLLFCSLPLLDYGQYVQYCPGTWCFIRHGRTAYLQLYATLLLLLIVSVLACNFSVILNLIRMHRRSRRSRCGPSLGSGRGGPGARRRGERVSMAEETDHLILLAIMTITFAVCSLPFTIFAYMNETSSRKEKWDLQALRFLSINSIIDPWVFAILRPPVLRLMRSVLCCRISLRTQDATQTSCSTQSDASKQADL

pKi	SMILES
6.70	CCCCCCC(O)c1ccc(N2C(=O)CC[C@@H]2COCc2ccc(C(=O)O)s2)cc1 (single isomer, unassigned) [drawing 181]

The compounds below were run against T2, EP4 receptors (Homo sapiens, UniProt P35408) (assay: Radioligand binding ([3H]PGE2), EP4). Settings: unit inferred; read-out: EP4 data KI.
T2 construct: expressed in transfected cells; host or cells: HEK-293
T2 sequence (P35408 whole entry): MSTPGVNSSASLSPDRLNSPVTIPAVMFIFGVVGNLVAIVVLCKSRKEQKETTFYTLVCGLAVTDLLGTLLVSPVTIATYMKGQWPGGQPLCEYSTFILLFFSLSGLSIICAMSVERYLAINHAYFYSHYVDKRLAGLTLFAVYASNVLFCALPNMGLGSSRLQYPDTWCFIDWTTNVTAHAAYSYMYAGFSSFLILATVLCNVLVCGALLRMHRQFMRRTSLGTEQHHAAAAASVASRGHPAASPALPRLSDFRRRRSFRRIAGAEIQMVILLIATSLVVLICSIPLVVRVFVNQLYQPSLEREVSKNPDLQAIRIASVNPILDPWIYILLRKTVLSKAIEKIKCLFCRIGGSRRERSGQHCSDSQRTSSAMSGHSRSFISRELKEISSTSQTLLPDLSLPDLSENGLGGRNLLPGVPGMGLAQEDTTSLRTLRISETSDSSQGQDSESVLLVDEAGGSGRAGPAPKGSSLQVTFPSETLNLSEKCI
Description: as §1, §2, §3

pKi	SMILES
< 5.00	CC(C)(C)c1ccc(N2C(=O)CC[C@@H]2COCCCCC(=O)O)cc1
5.48	CCCCCCC(O)c1ccc(N2C(=O)CC[C@@H]2COCc2ccc(C(=O)O)s2)cc1 (single isomer, unassigned) [drawing 153]
< 5.00	CC(C)(C)c1ccc(N2C(=O)CC[C@@H]2COCc2cccc(C(=O)O)c2)cc1
< 5.00	CCCCCC(O)c1ccc(N2C(=O)CC[C@@H]2COCc2cccc(C(=O)O)c2)cc1 (stereo partly shown)
< 5.00	CCCCCC(O)c1ccc(N2C(=O)CC[C@@H]2CCCc2ccc(C(=O)O)s2)cc1 (single isomer, unassigned) [drawing 150]
5.48	CCCCCCC(O)c1ccc(N2C(=O)CC[C@@H]2COCc2ccc(C(=O)O)s2)cc1 (single isomer, unassigned) [drawing 181]

What follows are compounds tested against T3, hEP2/Gqs5 (Homo sapiens, UniProt P43116) (assay: FLIPR calcium signal, hEP2). Settings: FLIPR Ca2+ signal, HEK-293(EBNA); read-out: FUNCTIONAL EC50 HEP2.
T3 construct: expressed in transfected cells; host or cells: HEK-293(EBNA)
T3 sequence (P43116 whole entry): as the sequence (P43116 whole entry) above
Format: cell-based
Description: (§4) HEK-293(EBNA) cells, stably expressing one type or subtype of recombinant human prostaglandin receptors (prostaglandin receptors expressed: hDP/Gqs5; hEP1; hEP2/Gqs5; hEP3A/Gqi5; hEP4/Gqs5; hFP; hIP; hTP), were cultured in 100 mm culture dishes in high-glucose DMEM medium containing 10% fetal bovine serum, 2 mM 1-glutamine, 250 μg/ml geneticin (G418) and 200 μg/ml hygromycin B as selection markers, and 100 units/ml penicillin G, 100 μg/ml streptomycin and 0.25 μg/ml amphotericin B. • (b) Calcium Signal Studies on the FLIPR™
(§5) Cells were seeded at a density of 5×10^4 cells per well in Biocoat® Poly-D-lysine-coated black-wall, clear-bottom 96-well plates (Becton-Dickinson) and allowed to attach overnight in an incubator at 37° C. Cells were then washed two times with HBSS-HEPES buffer (Hanks Balanced Salt Solution without bicarbonate and phenol red, 20 mM HEPES, pH 7.4) using a Denley Cellwash plate washer (Labsystems). After 45 minutes of dye-loading in the dark, using the calcium-sensitive dye Fluo-4 AM at a final concentration of 2 μM, plates were washed four times with HBSS-HEPES buffer to remove excess dye leaving 100 μl in each well. Plates were re-equilibrated to 37° C. for a few minutes.
(§6) Cells were excited with an Argon laser at 488 nm, and emission was measured through a 510-570 nm bandwidth emission filter (FLIPR™, Molecular Devices, Sunnyvale, Calif.). Drug solution was added in a 50 μl volume to each well to give the desired final concentration. The peak increase in fluorescence intensity was recorded for each well. On each plate, four wells each served as negative (HBSS-HEPES buffer) and positive controls (standard agonists: BW245C (hDP); PGE2 (hEP1; hEP2/Gqs5; hEP3A/Gqi5; hEP4/Gqs5); PGF2α (hFP); carbacyclin (hIP); U-46619 (hTP), depending on receptor). The peak fluorescence change in each drug-containing well was then expressed relative to the controls.
(§7) Compounds were tested in a high-throughput (HTS) or concentration-response (CoRe) format. In the HTS format, forty-four compounds per plate were examined in duplicates at a concentration of 10^−5 M. To generate concentration-response curves, four compounds per plate were tested in duplicates in a concentration range between 10^−5 and 10^−11 M. The duplicate values were averaged. In either, HTS or CoRe format each compound was tested on at least 3 separate plates using cells from different passages to give an n≧3.

pEC50	SMILES
< 5.00	CCCC1(C(O)c2cccc([C@H]3[C@H](O)CC(=O)[C@@H]3C/C=C\CCCC(=O)OC)c2)CCC1 (stereo partly shown)
5.28	CCCC1(C(O)c2cccc([C@H]3[C@H](O)CC(=O)[C@@H]3C/C=C\CCCC(=O)O)c2)CCC1 (stereo partly shown)
5.83	CCCC1(C(O)c2cccc([C@@H]3[C@@H](CCCCCCC(=O)O)[C@H](Cl)C[C@H]3O)c2)CCC1 (stereo partly shown)
< 5.00	COC(=O)CCC/C=C\C[C@@H]1[C@@H](c2ccc(C(C)(C)C)cc2)[C@H](O)C[C@H]1Cl

Same assay, conditions: unit inferred; other columns of the table in nM; read-out: EP2 data flipr EC50

EC50	SMILES
> 10000 nM	CC(C)(C)c1ccc(N2C(=O)CC[C@@H]2COCCCCC(=O)O)cc1
> 10000 nM	CC(C)(C)c1ccc(N2C(=O)CC[C@@H]2COCc2cccc(C(=O)O)c2)cc1
> 10000 nM	CCCCCC(O)c1ccc(N2C(=O)CC[C@@H]2COCc2cccc(C(=O)O)c2)cc1 (stereo partly shown)
6 nM	CCCCCC(O)c1ccc(N2C(=O)CC[C@@H]2CCCc2ccc(C(=O)O)s2)cc1 (single isomer, unassigned) [drawing 150]
49 nM	CCCCCCC(O)c1ccc(N2C(=O)CC[C@@H]2COCc2ccc(C(=O)O)s2)cc1 (single isomer, unassigned) [drawing 181]

The compounds below were run against T4, hEP3A/Gqi5 (Homo sapiens, UniProt P43115) (assay: FLIPR calcium signal, hEP3A). Settings: FLIPR Ca2+ signal, HEK-293(EBNA); read-out: FUNCTIONAL EC50 HEP3A.
T4 construct: expressed in transfected cells; host or cells: HEK-293(EBNA)
T4 sequence (P43115 1-390): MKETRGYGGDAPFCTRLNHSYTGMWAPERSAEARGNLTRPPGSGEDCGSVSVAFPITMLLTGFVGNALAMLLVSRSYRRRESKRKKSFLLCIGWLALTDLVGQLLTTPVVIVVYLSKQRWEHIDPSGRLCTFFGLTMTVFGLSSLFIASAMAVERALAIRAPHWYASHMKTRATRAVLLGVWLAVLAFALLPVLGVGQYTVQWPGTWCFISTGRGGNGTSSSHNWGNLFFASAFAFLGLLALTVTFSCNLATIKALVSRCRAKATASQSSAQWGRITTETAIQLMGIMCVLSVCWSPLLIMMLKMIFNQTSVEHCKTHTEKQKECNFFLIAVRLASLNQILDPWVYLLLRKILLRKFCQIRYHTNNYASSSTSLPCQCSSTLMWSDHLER
Format: cell-based
Description: as §4, §5, §6, §7

pEC50	SMILES
< 5.00	CCCC1(C(O)c2cccc([C@H]3[C@H](O)CC(=O)[C@@H]3C/C=C\CCCC(=O)OC)c2)CCC1 (stereo partly shown)
5.77	CCCC1(C(O)c2cccc([C@H]3[C@H](O)CC(=O)[C@@H]3C/C=C\CCCC(=O)O)c2)CCC1 (stereo partly shown)
5.51	CCCC1(C(O)c2cccc([C@@H]3[C@@H](CCCCCCC(=O)O)[C@H](Cl)C[C@H]3O)c2)CCC1 (stereo partly shown)
< 5.00	COC(=O)CCC/C=C\C[C@@H]1[C@@H](c2ccc(C(C)(C)C)cc2)[C@H](O)C[C@H]1Cl

Same assay, conditions: read-out: Other Receptors EC50 hEP3A

pEC50	SMILES
6.21	CCCCCCC(O)c1ccc(N2C(=O)CC[C@@H]2COCc2ccc(C(=O)O)s2)cc1 (single isomer, unassigned) [drawing 153]
5.85	CCCCCC(O)c1ccc(N2C(=O)CC[C@@H]2/C=C/Cc2ccc(C(=O)O)s2)cc1 (stereo partly shown) [drawing 172]
7.92	CCCCCC(O)c1ccc(N2C(=O)CC[C@@H]2CCCc2ccc(C(=O)O)s2)cc1 (single isomer, unassigned) [drawing 150]
6.21	CCCCCCC(O)c1ccc(N2C(=O)CC[C@@H]2COCc2ccc(C(=O)O)s2)cc1 (single isomer, unassigned) [drawing 181]

What follows are compounds tested against T5, hEP4/Gqs5 (Homo sapiens, UniProt P35408) (assay: FLIPR calcium signal, hEP4). Settings: FLIPR Ca2+ signal, HEK-293(EBNA); read-out: FUNCTIONAL EC50 HEP4.
T5 construct: expressed in transfected cells; host or cells: HEK-293(EBNA)
T5 sequence (P35408 whole entry): as the sequence (P35408 whole entry) above
Format: cell-based
Description: as §4, §5, §6, §7

pEC50	SMILES
< 5.00	CCCC1(C(O)c2cccc([C@H]3[C@H](O)CC(=O)[C@@H]3C/C=C\CCCC(=O)OC)c2)CCC1 (stereo partly shown)

Same assay, conditions: unit inferred; read-out: EP4 data flipr EC50

pEC50	SMILES
< 5.00	CC(C)(C)c1ccc(N2C(=O)CC[C@@H]2COCCCCC(=O)O)cc1
< 5.00	CC(C)(C)c1ccc(N2C(=O)CC[C@@H]2COCc2cccc(C(=O)O)c2)cc1
< 5.00	CCCCCC(O)c1ccc(N2C(=O)CC[C@@H]2CCCc2ccc(C(=O)O)s2)cc1 (single isomer, unassigned) [drawing 150]

What follows are compounds tested against T6, HEK-EBNA cells expressing a PG EP2 receptor subtype (Homo sapiens, UniProt P43116) (assay: cAMP assay, EP2). Settings: unit inferred; read-out: EP2 data cAMP EC50.
T6 construct: expressed in transfected cells; host or cells: HEK-EBNA
T6 sequence (P43116 whole entry): as the sequence (P43116 whole entry) above
Format: cell-based
Description: A 384-well drug plate was prepared to contain 6 test compounds, PGE2 and cAMP in 16 serial dilutions in triplicate, using a Biomek station. HEK-EBNA cells expressing a target PG receptor subtype (EP2 or EP4) were suspended in a stimulation buffer (HBSS, 0.1% BSA, 0.5 mM IBMX and 5 mM HEPES, pH 7.4) in a density of 10^4 cells/5 μl. The reaction was initiated by mixing 5 μL drug dilutions with 5 μl of HEK-EBNA cells in a well, carried out for 30 min at room temperature, and followed by the addition of 5 μl anti-cAMP acceptor beads in the control buffer with Tween-20 (25 mM NaCl, 0.03% Tween-20, 5 mM HEPES, pH7.4). After 30 min in the dark at room temperature, the mixtures were incubated with 15 μl biotinylated-cAMP/strepavidin donor beads in Lysis/Detection buffer (0.1% BSA, 0.3% Tween-20 and 5 mM HEPES, pH7.4) for 45 min at the room temperature. Fluorescence changes were read using a Fusion-alpha HT microplate reader.

pEC50	SMILES
8.40	CCCCCCC(O)c1ccc(N2C(=O)CC[C@@H]2COCc2ccc(C(=O)O)s2)cc1 (single isomer, unassigned) [drawing 153]
6.29	CCCCCC(O)c1ccc(N2C(=O)CC[C@@H]2COCc2cccc(C(=O)O)c2)cc1 (stereo partly shown)
8.40	CCCCCCC(O)c1ccc(N2C(=O)CC[C@@H]2COCc2ccc(C(=O)O)s2)cc1 (single isomer, unassigned) [drawing 181]
